Results on 11 molecules are retold here after patent US11198713B2, “Agents modulating beta-catenin functions and methods thereof” (FOG PHARMACEUTICALS, INC., priority 2017, dated 2021).

Molecules are shown by their SMILES. Some results are limits rather than exact numbers.

The target of the experiment is T1, full-length beta-catenin (Axin site) (Homo sapiens, UniProt P35222).
T1 construct: 15 nM full-length beta-catenin, 20 nM FITC labeled peptide in buffer
T1 sequence (P35222 1-781): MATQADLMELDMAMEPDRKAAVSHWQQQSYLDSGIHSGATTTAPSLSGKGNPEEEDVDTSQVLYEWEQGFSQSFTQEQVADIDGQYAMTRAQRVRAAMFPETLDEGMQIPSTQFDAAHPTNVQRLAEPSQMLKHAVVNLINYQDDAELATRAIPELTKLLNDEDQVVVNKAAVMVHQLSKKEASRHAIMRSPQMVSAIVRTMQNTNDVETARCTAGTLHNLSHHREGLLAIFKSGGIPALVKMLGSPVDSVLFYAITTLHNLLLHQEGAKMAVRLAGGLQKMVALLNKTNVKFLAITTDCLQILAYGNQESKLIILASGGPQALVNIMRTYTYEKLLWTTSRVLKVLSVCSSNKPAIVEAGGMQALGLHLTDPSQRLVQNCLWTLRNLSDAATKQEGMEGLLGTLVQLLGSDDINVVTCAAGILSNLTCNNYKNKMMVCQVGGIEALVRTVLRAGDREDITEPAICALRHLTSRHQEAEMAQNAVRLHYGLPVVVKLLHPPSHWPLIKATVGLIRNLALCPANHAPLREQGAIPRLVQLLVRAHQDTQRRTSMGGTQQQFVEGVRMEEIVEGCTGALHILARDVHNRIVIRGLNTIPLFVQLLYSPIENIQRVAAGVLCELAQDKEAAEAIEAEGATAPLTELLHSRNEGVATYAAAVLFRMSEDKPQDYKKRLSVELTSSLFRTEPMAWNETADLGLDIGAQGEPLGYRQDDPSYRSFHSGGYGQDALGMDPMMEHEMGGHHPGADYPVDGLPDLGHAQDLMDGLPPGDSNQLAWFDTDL
The experiment in a line: Competition fluorescence polarization assay (Axin site probe). Type of experiment: binding. As to conditions: competition with FITC labeled Axin-site probe, 15 nM full-length beta-catenin; read-out: FP EC50. In outline: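 Competition FP: 15 nM full-length β-catenin pre-incubated 5 min with 20 nM FITC-labelled stapled Axin-site peptide, then titrated peptide added (3-fold series from 5 μM) for 15 min in the dark. Buffer 50 mM Tris pH 8.0, 250 mM NaCl, 2% glycerol, 0.5 mM EDTA; duplicate reads.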
In general terms: Fluorescence polarisation rises when a labelled molecule tumbles more slowly, as on binding a larger partner.

As a reminder, the EC50 is the concentration giving half of the maximal effect. In the case of `CC[C@H](C)[C@@H]1NC(=O)C2(NC(=O)[C@H](CCC(N)=O)NC(=O)[C@@H]3CCCN3C(C)=O)CN(CC=CCCCC[C@](C)(C(=O)N[C@@H](Cc3c[nH]cn3)C(=O)N[C@H](C(=O)N[C@@H](CCCNC(=N)N)C(=O)N[C@@H](CCCNC(=N)N)C(=O)N[C@H](C(=O)N[C@@H](Cc3c[nH]c4ccccc34)C(=O)N[C@@H](CCCNC(=N)N)C(N)=O)C(C)C)C(C)C)NC(=O)[C@H](CC(=O)O)NC(=O)[C@H](CC(C)C)NC1=O)C2` (single isomer, unassigned) [FP-0725, Ac-P-Q-Az-I-L-D-R6-H-V-R-R-V-W-R-NH2], the EC50 is 580 nM. For `CC[C@H](C)[C@@H]1NC(=O)[C@@](C)(NC(=O)[C@H](CCC(N)=O)NC(=O)[C@@H]2CCCN2C(C)=O)CCCC=CCN2CC(C(=O)N[C@@H](Cc3c[nH]cn3)C(=O)N[C@H](C(=O)N[C@@H](CCCNC(=N)N)C(=O)N[C@@H](CCCNC(=N)N)C(=O)N[C@H](C(=O)N[C@@H](Cc3c[nH]c4ccccc34)C(=O)N[C@@H](CCCNC(=N)N)C(N)=O)C(C)C)C(C)C)(C2)NC(=O)[C@H](CC(=O)O)NC(=O)[C@H](CC(C)C)NC1=O` (single isomer, unassigned) [FP-0734, Ac-P-Q-S5-I-L-D-Az-H-V-R-R-V-W-R-NH2], the EC50 was over 5000 nM. The result for `CC[C@H](C)[C@@H]1NC(=O)[C@@](C)(NC(=O)[C@H](CCC(N)=O)NC(=O)[C@@H]2CCCN2C(C)=O)CCCC=CCOC(=O)N2CC(C(=O)N[C@@H](Cc3c[nH]cn3)C(=O)N[C@H](C(=O)N[C@@H](CCCNC(=N)N)C(=O)N[C@@H](CCCNC(=N)N)C(=O)N[C@H](C(=O)N[C@@H](Cc3c[nH]c4ccccc34)C(=O)N[C@@H](CCCNC(=N)N)C(N)=O)C(C)C)C(C)C)(C2)NC(=O)[C@H](CC(=O)O)NC(=O)[C@H](CC(C)C)NC1=O` (single isomer, unassigned) [FP-0734c, Ac-P-Q-S5-I-L-D-Az-H-V-R-R-V-W-R-NH2] reads over 5000 nM; that for `CC[C@H](C)[C@@H]1NC(=O)[C@@](C)(NC(=O)[C@H](CCC(N)=O)NC(=O)[C@@H]2CCCN2C(C)=O)CCCCCC=CCN2CC(C(=O)N[C@@H](Cc3c[nH]cn3)C(=O)N[C@H](C(=O)N[C@@H](CCCNC(=N)N)C(=O)N[C@@H](CCCNC(=N)N)C(=O)N[C@H](C(=O)N[C@@H](Cc3c[nH]c4ccccc34)C(=O)N[C@@H](CCCNC(=N)N)C(N)=O)C(C)C)C(C)C)(C2)NC(=O)[C@H](CC(=O)O)NC(=O)[C@H](CC(C)C)NC1=O` (single isomer, unassigned) [FP-0738, Ac-P-Q-S7-I-L-D-Az-H-V-R-R-V-W-R-NH2], 200 nM; that for `CC[C@H](C)[C@@H]1NC(=O)[C@@](C)(NC(=O)[C@H](CCC(N)=O)NC(=O)[C@@H]2CCCN2C(C)=O)CCCCCC=CCOC(=O)N2CC(C(=O)N[C@@H](Cc3c[nH]cn3)C(=O)N[C@H](C(=O)N[C@@H](CCCNC(=N)N)C(=O)N[C@@H](CCCNC(=N)N)C(=O)N[C@H](C(=O)N[C@@H](Cc3c[nH]c4ccccc34)C(=O)N[C@@H](CCCNC(=N)N)C(N)=O)C(C)C)C(C)C)(C2)NC(=O)[C@H](CC(=O)O)NC(=O)[C@H](CC(C)C)NC1=O` (single isomer, unassigned) [FP-0738c, Ac-P-Q-S7-I-L-D-Az-H-V-R-R-V-W-R-NH2], 1800 nM. Consider `CC[C@H](C)[C@@H]1NC(=O)[C@@]2(NC(=O)[C@H](CCC(N)=O)NC(=O)[C@@H]3CCCN3C(C)=O)CCN(CC=CCCC[C@](C)(C(=O)N[C@@H](Cc3c[nH]cn3)C(=O)N[C@H](C(=O)N[C@@H](CCCNC(=N)N)C(=O)N[C@@H](CCCNC(=N)N)C(=O)N[C@H](C(=O)N[C@@H](Cc3c[nH]c4ccccc34)C(=O)N[C@@H](CCCNC(=N)N)C(N)=O)C(C)C)C(C)C)NC(=O)[C@H](CC(=O)O)NC(=O)[C@H](CC(C)C)NC1=O)C2` (single isomer, unassigned) [FP-0743, Ac-P-Q-PR-I-L-D-R5-H-V-R-R-V-W-R-NH2], for which the EC50 is over 5000 nM. With `CC[C@H](C)[C@@H]1NC(=O)[C@@]2(NC(=O)[C@H](CCC(N)=O)NC(=O)[C@@H]3CCCN3C(C)=O)CCN(C2)C(=O)OCC=CCCCC[C@](C)(C(=O)N[C@@H](Cc2c[nH]cn2)C(=O)N[C@H](C(=O)N[C@@H](CCCNC(=N)N)C(=O)N[C@@H](CCCNC(=N)N)C(=O)N[C@H](C(=O)N[C@@H](Cc2c[nH]c3ccccc23)C(=O)N[C@@H](CCCNC(=N)N)C(N)=O)C(C)C)C(C)C)NC(=O)[C@H](CC(=O)O)NC(=O)[C@H](CC(C)C)NC1=O` (single isomer, unassigned) [FP-0745c, Ac-P-Q-PR-I-L-D-R6-H-V-R-R-V-W-R-NN2], the EC50 came out at 110 nM.

As for `CC[C@H](C)[C@@H]1NC(=O)[C@]2(NC(=O)[C@H](CCC(N)=O)NC(=O)[C@@H]3CCCN3C(C)=O)CCN(CC=CCCC[C@@](C)(C(=O)N[C@@H](Cc3c[nH]cn3)C(=O)N[C@H](C(=O)N[C@@H](CCCNC(=N)N)C(=O)N[C@@H](CCCNC(=N)N)C(=O)N[C@H](C(=O)N[C@@H](Cc3c[nH]c4ccccc34)C(=O)N[C@@H](CCCNC(=N)N)C(N)=O)C(C)C)C(C)C)NC(=O)[C@H](CC(=O)O)NC(=O)[C@H](CC(C)C)NC1=O)C2` (single isomer, unassigned) [FP-0751, Ac-P-Q-PS-I-L-D-S5-H-V-R-R-V-W-R-NH2], the EC50 was over 5000 nM.

For the molecule `CC[C@H](C)[C@@H]1NC(=O)[C@]2(NC(=O)[C@H](CCC(N)=O)NC(=O)[C@@H]3CCCN3C(C)=O)CCN(CC=CCCCCC[C@@](C)(C(=O)N[C@@H](Cc3c[nH]cn3)C(=O)N[C@H](C(=O)N[C@@H](CCCNC(=N)N)C(=O)N[C@@H](CCCNC(=N)N)C(=O)N[C@H](C(=O)N[C@@H](Cc3c[nH]c4ccccc34)C(=O)N[C@@H](CCCNC(=N)N)C(N)=O)C(C)C)C(C)C)NC(=O)[C@H](CC(=O)O)NC(=O)[C@H](CC(C)C)NC1=O)C2` (single isomer, unassigned) [FP-0753, Ac-P-Q-PS-I-L-D-S7-H-V-R-R-V-W-R-NH2], the EC50 was over 5000 nM. The result for `CC[C@H](C)[C@@H]1NC(=O)[C@](C)(NC(=O)[C@H](CCC(N)=O)NC(=O)[C@@H]2CCCN2C(C)=O)CCCC=CCN2CC[C@@](C(=O)N[C@@H](Cc3c[nH]cn3)C(=O)N[C@H](C(=O)N[C@@H](CCCNC(=N)N)C(=O)N[C@@H](CCCNC(=N)N)C(=O)N[C@H](C(=O)N[C@@H](Cc3c[nH]c4ccccc34)C(=O)N[C@@H](CCCNC(=N)N)C(N)=O)C(C)C)C(C)C)(C2)NC(=O)[C@H](CC(=O)O)NC(=O)[C@H](CC(C)C)NC1=O` (single isomer, unassigned) [FP-0758, Ac-P-Q-R5-I-L-D-PS-H-V-R-R-V-W-R-NH2] reads over 5000 nM; that for `CC[C@H](C)[C@@H]1NC(=O)[C@](C)(NC(=O)[C@H](CCC(N)=O)NC(=O)[C@@H]2CCCN2C(C)=O)CCCCC=CCOC(=O)N2CC[C@](C(=O)N[C@@H](Cc3c[nH]cn3)C(=O)N[C@H](C(=O)N[C@@H](CCCNC(=N)N)C(=O)N[C@@H](CCCNC(=N)N)C(=O)N[C@H](C(=O)N[C@@H](Cc3c[nH]c4ccccc34)C(=O)N[C@@H](CCCNC(=N)N)C(N)=O)C(C)C)C(C)C)(C2)NC(=O)[C@H](CC(=O)O)NC(=O)[C@H](CC(C)C)NC1=O` (single isomer, unassigned) [FP-0767c, Ac-P-Q-R6-I-L-D-PR-H-V-R-R-V-W-R-NH2], 110 nM.
